Values quoted from earlier work as cited in patent EP0496617B1, “Adenosine kinase inhibitors” (priority 1991, dated 1992).

Key:
isolated rat hearts = conditions: perfused with the compound alone; normoxic, hypoxic, anoxic or ischemic conditions; cited from earlier work
rat brain slices = conditions: cited from earlier work
guinea pig brain slices = conditions: cited from earlier work
dog hearts = conditions: cited from earlier work
mice = conditions: cited from earlier work
anesthetized rats = conditions: cited from earlier work
rat cardiomyocytes = conditions: inhibition of ADA together with adenosine kinase; cited from earlier work
[1] = test system: Isolated guinea pig hearts; conditions: added to the perfusion medium in the presence of EHNA; cited from earlier work

Nc1ncnc2c1c(I)cn2[C@@H]1O[C@H](CO)[C@@H](O)[C@H]1O [5-iodotubercidin, reference compound]
perfusate adenosine concentration (isolated rat hearts): no increase in perfusate adenosine concentration | adenosine uptake (rat brain slices): inhibited | adenosine uptake (guinea pig brain slices): inhibited | effects in ischemia and reperfusion (dog hearts): inconsistent effects | body temperature (mice): hypothermia | flaccidity and spontaneous locomotor activity (mice): pronounced general flaccidity and much-reduced spontaneous locomotor activity | blood pressure and heart rate (anesthetized rats): decrease blood pressure and heart rate

NC[C@H]1O[C@@H](n2cnc3c(N)ncnc32)[C@H](O)[C@@H]1O [GP-1-238, 5'-amino-5'-deoxyadenosine]
increase in adenosine release (rat cardiomyocytes): 6 fold | increase of adenosine release [1]: 15 fold
